Reference: ChEMBL document CHEMBL4229383, “Antiproliferative efficacy of curcumin mimics through microtubule destabilization” (Eur J Med Chem, 2018)
The source made the active and inactive calls. No cut-off for these calls is given here.

Tests used:
[1] = test system: A549; assay: Cytotoxicity against human A549 cells preincubated for 4 hrs followed by incubation in compound free media for 24 hrs by MTT assay; assay type: functional, cell-based
[2] = test system: A-431; assay: Cytotoxicity against human A431 cells preincubated for 4 hrs followed by incubation in compound free media for 24 hrs by MTT assay; assay type: functional, cell-based
[3] = test system: WRL68; assay: Cytotoxicity against human WRL68 cells preincubated for 4 hrs followed by incubation in compound free media for 24 hrs by MTT assay; assay type: functional, cell-based
[4] = test system: MCF7; assay: Cytotoxicity against human MCF7 cells preincubated for 4 hrs followed by incubation in compound free media for 24 hrs by MTT assay; assay type: functional, cell-based
[5] = test system: DLD-1; assay: Cytotoxicity against human DLD1 cells preincubated for 4 hrs followed by incubation in compound free media for 24 hrs by MTT assay; assay type: functional, cell-based
[6] = Inhibition of porcine brain tubulin polymerization measured every min for 1 hr; set-up: species or system Sus scrofa
[7] = organism: Sus scrofa; assay: Inhibition of porcine brain tubulin polymerization at 20 uM measured every min for 1 hr
[8] = test system: Mus musculus; assay: Toxicity in Swiss mouse implanted with mouse EAC cells assessed as body weight at 20 mg/kg, ip measured on day 1 post dose (reference value: 22g); assay type: organism-based; conditions: in vivo
[9] = test system: Mus musculus; assay: Toxicity in Swiss mouse implanted with mouse EAC cells assessed as body weight at 20 mg/kg, ip measured on day 5 post dose (reference value: 23.7g); assay type: organism-based; conditions: in vivo
[10] = test system: Mus musculus; assay: Toxicity in Swiss mouse implanted with mouse EAC cells assessed as body weight at 20 mg/kg, ip measured on day 9 post dose (reference value: 28.66g); assay type: organism-based; conditions: in vivo
[11] = test system: Mus musculus; assay: Toxicity in Swiss mouse implanted with mouse EAC cells assessed as body weight at 20 mg/kg, ip measured on day 12 post dose (reference value: 32.5g); assay type: organism-based; conditions: in vivo
[12] = test system: Mus musculus; assay: Toxicity in Swiss mouse implanted with mouse EAC cells assessed as body weight at 20 mg/kg, ip measured on day 1 post dose (reference value: 24.77g); assay type: organism-based; conditions: in vivo
[13] = test system: Mus musculus; assay: Toxicity in Swiss mouse implanted with mouse EAC cells assessed as body weight at 20 mg/kg, ip measured on day 5 post dose (reference value: 26.33g); assay type: organism-based; conditions: in vivo
[14] = test system: Mus musculus; assay: Toxicity in Swiss mouse implanted with mouse EAC cells assessed as body weight at 20 mg/kg, ip measured on day 9 post dose (reference value: 30.55g); assay type: organism-based; conditions: in vivo
[15] = test system: Mus musculus; assay: Toxicity in Swiss mouse implanted with mouse EAC cells assessed as body weight at 20 mg/kg, ip measured on day 12 post dose (reference value: 35.5g); assay type: organism-based; conditions: in vivo
[16] = test system: Ehrlich; assay: Antitumor activity against mouse EAC cells implanted in Swiss mouse assessed as tumor growth inhibition at 20 mg/kg, ip from day 1 to 9 and measured on day 12 post dose relative to control; assay type: functional; conditions: read-out: TGI
[17] = test system: Mus musculus; assay: Toxicity in Swiss mouse implanted with mouse EAC cells assessed as mortality at 20 mg/kg, ip from day 1 to 9 and measured on day 12 post dose; assay type: organism-based; conditions: in vivo
[18] = test system: Ehrlich; assay: Antitumor activity against mouse EAC cells implanted in Swiss mouse assessed as solid tumor growth inhibition at 22 mg/kg, ip from day 1 to 9 and measured on day 13 post dose relative to control; assay type: functional; conditions: read-out: TGI
[19] = test system: Mus musculus; assay: Toxicity in Swiss mouse implanted with mouse EAC solid tumor cells assessed as body weight at 22 mg/kg, ip from day 1 to 9 and measured on day 13 post dose (reference value: 26.9g); assay type: organism-based; conditions: in vivo
[20] = test system: Mus musculus; assay: Toxicity in Swiss mouse implanted with mouse EAC solid tumor cells assessed as body weight at 22 mg/kg, ip measured on day 1 post dose (reference value: 25 g); assay type: organism-based; conditions: in vivo
[21] = test system: Mus musculus; assay: Toxicity in Swiss mouse implanted with mouse EAC solid tumor cells assessed as body weight at 22 mg/kg, ip measured on day 5 post dose (reference value: 26.7 g); assay type: organism-based; conditions: in vivo
[22] = test system: Mus musculus; assay: Toxicity in Swiss mouse implanted with mouse EAC solid tumor cells assessed as body weight at 22 mg/kg, ip measured on day 9 post dose (reference value: 26.7 g); assay type: organism-based; conditions: in vivo

Row | Compound | IC50 [1] [µM] | IC50 [2] [µM] | IC50 [3] [µM] | IC50 [4] [µM] | IC50 [5] [µM] | also measured
1 | O=C(/C=C/c1ccc(/C=C/C(=O)c2ccc3c(c2)OCO3)cc1)c1ccc2c(c1)OCO2 | > 100 | > 100 | 80.1 | 30.6 | > 40 | –
2 | COc1cc(/C=C/C(=O)CC(=O)/C=C/c2ccc(O)c(OC)c2)ccc1O [CURCUMIN] | 43.9 | > 100 | 27.8 | 22.1 | > 40 | IC50 [6]: 5.12 µM; inhibition [7]: Active
3 | O=C(/C=C/c1ccc(O)cc1)CC(=O)/C=C/c1ccc(O)cc1 [BISDEMETHOXYCURCUMIN] | – | > 100 | 45.4 | 48.9 | > 40 | –
4 | COc1cc(/C=C/C(=O)CC(=O)/C=C/c2ccc(O)cc2)ccc1O | 28.2 | > 100 | 26.3 | 92.1 | > 40 | –
5 | CC/C(=C(\c1ccccc1)c1ccc(OCCN(C)C)cc1)c1ccccc1 [TAMOXIFEN] | – | > 100 | – | 8.61 | 16.3 | –
6 | O=C(/C=C/c1ccc2c(c1)OCO2)c1cccc(C(=O)/C=C/c2ccc3c(c2)OCO3)c1 | 18.7 | 10 | > 100 | > 100 | 16.5 | –
7 | COc1cc([C@@H]2c3cc4c(cc3[C@H](O)[C@H]3COC(=O)[C@H]23)OCO4)cc(OC)c1OC [PODOFILOX] | 5.61 | > 100 | 3.02 | 4.16 | 0.11 | IC50 [6]: 0.78 µM
8 | O=c1[nH]cc(F)c(=O)[nH]1 [FLUOROURACIL] | – | – | – | – | – | Activity [8]: 22.85 g; Activity [9]: 22.57 g; Activity [10]: 21.71 g; Activity [11]: 21.42 g; Activity [12]: 25.85 g; Activity [13]: 25.85 g; Activity [14]: 24.57 g; Activity [15]: 24.14 g; inhibition in vivo at 20 mg/kg [16]: 96.4 to 96.8%; Activity [17]: Non-Toxic; inhibition in vivo at 22 mg/kg [18]: 51%; Activity [19]: 24.85 g; Activity [20]: 26.42 g; Activity [21]: 25.14 g; Activity [22]: 24.71 g
